Measurements taken from patent publication US8853392B2, “Benzamide mGluR5 positive allosteric modulators and methods of making and using same” (Vanderbilt University, priority 2007, dated 2014).

biological target: T1, rat mGluR5 (Rattus norvegicus, UniProt P31424); test: potentiation of mGluR5 response to glutamate, Ca2+ fluorescence (FDSS) in HEK cells transfected with rat mGluR5; format: cell-based; conditions: HEK293, read-out: % Glu Max, maximum extent of potentiation, normalized to maximal response to glutamate; SAR tables
T1 construct: expressed in transfected cells; host or cells: human embryonic kidney (HEK) cells
T1 sequence (P31424 21-1203): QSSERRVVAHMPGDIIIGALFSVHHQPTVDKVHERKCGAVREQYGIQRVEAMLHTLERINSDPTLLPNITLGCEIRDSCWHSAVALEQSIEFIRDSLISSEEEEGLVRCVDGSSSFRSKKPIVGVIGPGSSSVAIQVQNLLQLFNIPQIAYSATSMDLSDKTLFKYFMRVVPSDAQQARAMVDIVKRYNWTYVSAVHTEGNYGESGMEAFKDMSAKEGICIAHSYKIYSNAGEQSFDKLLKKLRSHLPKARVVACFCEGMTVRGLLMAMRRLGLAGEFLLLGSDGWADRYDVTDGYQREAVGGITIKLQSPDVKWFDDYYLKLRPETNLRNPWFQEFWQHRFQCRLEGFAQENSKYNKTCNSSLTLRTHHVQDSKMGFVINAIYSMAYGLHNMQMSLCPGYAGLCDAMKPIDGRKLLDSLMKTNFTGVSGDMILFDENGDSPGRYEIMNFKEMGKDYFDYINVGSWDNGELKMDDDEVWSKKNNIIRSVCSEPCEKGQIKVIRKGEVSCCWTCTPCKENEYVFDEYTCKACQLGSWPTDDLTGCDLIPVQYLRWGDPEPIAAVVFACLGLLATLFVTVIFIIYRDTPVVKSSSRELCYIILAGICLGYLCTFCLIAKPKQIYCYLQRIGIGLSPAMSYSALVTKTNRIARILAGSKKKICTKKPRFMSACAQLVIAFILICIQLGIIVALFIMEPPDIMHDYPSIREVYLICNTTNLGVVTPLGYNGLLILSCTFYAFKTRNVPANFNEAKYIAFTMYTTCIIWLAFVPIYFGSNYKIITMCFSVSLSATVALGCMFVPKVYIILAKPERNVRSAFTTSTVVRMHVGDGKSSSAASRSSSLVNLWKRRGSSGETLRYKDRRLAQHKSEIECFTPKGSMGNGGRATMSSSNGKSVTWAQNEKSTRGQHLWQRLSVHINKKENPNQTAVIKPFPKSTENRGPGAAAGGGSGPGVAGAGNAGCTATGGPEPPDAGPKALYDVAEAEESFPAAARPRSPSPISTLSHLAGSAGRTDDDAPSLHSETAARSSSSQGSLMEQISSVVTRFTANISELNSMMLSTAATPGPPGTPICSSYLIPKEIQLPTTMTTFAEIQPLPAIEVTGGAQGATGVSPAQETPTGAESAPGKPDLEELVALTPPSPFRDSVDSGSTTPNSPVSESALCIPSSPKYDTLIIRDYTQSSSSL
Procedure: Human embryonic kidney (HEK) cells transfected with rat mGluR5 were plated in clear bottom assay plates for assay in a Functional Drug Screening System (FDSS). The cells were loaded with a Ca^2+-sensitive fluorescent dye (e.g., Fluo-4), and the plates were washed and placed in the FDSS instrument. After establishment of a fluorescence baseline for twelve seconds, the compounds of the present invention were added to the cells, and the response in cells was measured. Five minutes later, an mGluR5 agonist (e.g., glutamate, 3,5-dihydroxyphenylglycine, or quisqualate) was added to the cells, and the response of the cells was measured. Potentiation of the agonist response of mGluR5 by the compounds in the present invention was observed as an increase in response to non-maximal concentrations of agonist (here, glutamate) in the presence of compound compared to the response to agonist in the absence of compound.
The above described assay operated in two modes. In the first mode, a range of concentrations of the present compounds were added to cells, followed by a single fixed concentration of agonist. If a compound acted as a potentiator, an EC50 value for potentiation and a maximum extent of potentiation by the compound at this concentration of agonist was determined by non-linear curve fitting. In the second mode, several fixed concentrations of the present compounds were added to various wells on a plate, followed by a range of concentrations of agonist for each concentration of present compound; the EC50 values for the agonist at each concentration of compound were determined by non-linear curve fitting. A decrease in the EC50 value of the agonist with increasing concentrations of the present compounds (a leftward shift of the agonist concentration-response curve) is an indication of the degree of mGluR5 potentiation at a given concentration of the present compound. An increase in the EC50 value of the agonist with increasing concentrations of the present compounds (a rightward shift of the agonist concentration-response curve) is an indication of the degree of mGluR5 antagonism at a given concentration of the present compound. The second mode also indicates whether the present compounds also affect the maximum response to mGluR5 to agonists.
Human embryonic kidney (HEK) cells transfected with rat mGluR5 were plated in clear-bottomed, poly-D-lysine-coated assay plates in glutamate-glutamine-free medium growth and incubated overnight at 37° C. in 5% CO2. The following day, cells were loaded with 2 μM calcium indicator dye, fluo-4 AM, for 1 h at 37° C. Dye was removed and replaced with assay buffer containing 1× Hanks balanced salt solution (Invitrogen, Carlsbad, Calif.), 20 mM HEPES, and 2.5 mM probenecid, pH 7.4. Cell plates were then loaded into the Functional Drug Screening System 6000 (FDSS 6000, Hamamatsu, Japan). After establishment of a fluorescence baseline for twelve seconds, the compounds of the present invention were added to the cells, and the response in cells was measured. Five minutes later, an mGluR5 agonist (e.g., glutamate, 3,5-dihydroxyphenylglycine, or quisqualate) was added to the cells, and the response of the cells was measured during a 1 minute incubation with agonists. Typically, the effect of test compounds of the present invention was on an EC20 concentration of glutamate was measured. All test compounds were dissolved and diluted in 100% DMSO and then serially diluted into assay buffer for a 2.5× stock in 0.25% DMSO; stock compounds were then added to the assay for a final DMSO concentration of 0.1%. Calcium fluorescence measures were recorded as fold over basal fluorescence; raw data was then normalized to the maximal response to agonist. Potentiation of the agonist response of mGluR5 by the compounds in the present invention was observed as an increase in response to non-maximal concentrations of agonist (here, glutamate) in the presence of compound compared to the response to agonist in the absence of compound. […]

Compound	Emax [%]
CC1(O)CCN(C(=O)c2ccc(C#Cc3ccccc3)cc2)CC1 [Compound 7a, (4-hydroxy-4-methylpiperidin-1-yl)(4-(phenylethynyl)phenyl)methanone]	82.5
CC(C)C1(O)CCN(C(=O)c2ccc(C#Cc3ccccc3)cc2)CC1 [Compound 7c, (4-hydroxy-4-isopropylpiperidin-1-yl)(4-(phenylethynyl)phenyl)methanone]	89.1
O=C(c1ccc(C#Cc2ccccc2)cc1)N1CCC(O)(c2cccs2)CC1 [Compound 7d, (4-hydroxy-4-(thiophen-2-yl)piperidin-1-yl)(4-(phenylethynyl)phenyl)methanone]	95
O=C(c1ccc(C#Cc2ccccc2)cc1)N1CCC(O)(c2ccc(F)cc2)CC1 [Compound 7e]	87
O=C(c1ccc(C#Cc2ccccc2)cc1)N1CCC(O)(c2cccc(F)c2)CC1 [Compound 7f]	92
COc1ccc(C2(O)CCN(C(=O)c3ccc(C#Cc4ccccc4)cc3)CC2)cc1 [Compound 7g]	91

same assay, conditions: HEK293; maximum extent of potentiation, normalized to maximal response to glutamate; SAR tables; read-out: % Glu Max

Compound	Emax [%]
O=C(c1ccc(C#Cc2ccccc2)cc1)N1CC(O)C1 [Compound 9a, (3-hydroxyazetidin-1-yl)(4-(phenylethynyl)phenyl)methanone]	67.3
CC1(O)CN(C(=O)c2ccc(C#Cc3ccccc3)cc2)C1 [Compound 9b, (3-hydroxy-3-methylazetidin-1-yl)(4-(phenylethynyl)phenyl)methanone]	82
CCCC1(O)CN(C(=O)c2ccc(C#Cc3ccccc3)cc2)C1 [Compound 9c, (3-hydroxy-3-propylazetidin-1-yl)(4-(phenylethynyl)phenyl)methanone]	59.8
O=C(c1ccc(C#Cc2ccccc2)cc1)N1CC(O)(c2cccs2)C1 [Compound 9d, (3-hydroxy-3-(thiophen-2-yl)azetidin-1-yl)(4-(phenylethynyl)phenyl)methanone]	43.7
O=C(c1ccc(C#Cc2ccccc2F)cc1)N1CCC(O)CC1 [Compound 19a, (4-((2-fluorophenyl)ethynyl)phenyl)(4-hydroxypiperidin-1-yl)methanone]	80
O=C(c1ccc(C#Cc2cccc(F)c2)cc1)N1CCC(O)CC1 [Compound 19b, (4-((3-fluorophenyl)ethynyl)phenyl)(4-hydroxypiperidin-1-yl)methanone]	77
O=C(c1ccc(C#Cc2ccc(F)cc2)cc1)N1CCC(O)CC1 [Compound 19c, (4-((4-fluorophenyl)ethynyl)phenyl)(4-hydroxypiperidin-1-yl)methanone]	63
O=C(c1ccc(C#Cc2ccc(F)c(F)c2)cc1)N1CCC(O)CC1 [Compound 19d, (4-((3,4-difluorophenyl)ethynyl)phenyl)(4-hydroxypiperidin-1-yl)methanone]	52
O=C(c1ccc(C#Cc2cc(F)cc(F)c2)cc1)N1CCC(O)CC1 [Compound 19e, (4-((3,5-difluorophenyl)ethynyl)phenyl)(4-hydroxypiperidin-1-yl)methanone]	67
Cc1cc(C#Cc2ccc(C(=O)N3CCC(O)CC3)cc2)ccc1F [Compound 19f, (4-((4-fluoro-3-methylphenyl)ethynyl)phenyl)(4-hydroxypiperidin-1-yl)methanone]	76

same assay, conditions: Table 1, EC50 for potentiating the mGluR5 receptor; unit inferred; read-out: EC50

Compound	EC50 [nM]
CC1(O)CCN(C(=O)c2ccc(C#Cc3ccccc3)cc2)CC1 [Compound 7a, (4-hydroxy-4-methylpiperidin-1-yl)(4-(phenylethynyl)phenyl)methanone]	39.4
CC(C)C1(O)CCN(C(=O)c2ccc(C#Cc3ccccc3)cc2)CC1 [Compound 7c, (4-hydroxy-4-isopropylpiperidin-1-yl)(4-(phenylethynyl)phenyl)methanone]	1800
O=C(c1ccc(C#Cc2ccccc2)cc1)N1CCC(O)(c2cccs2)CC1 [Compound 7d, (4-hydroxy-4-(thiophen-2-yl)piperidin-1-yl)(4-(phenylethynyl)phenyl)methanone]	1070
O=C(c1ccc(C#Cc2ccccc2)cc1)N1CC(O)C1 [Compound 9a, (3-hydroxyazetidin-1-yl)(4-(phenylethynyl)phenyl)methanone]	314
CC1(O)CN(C(=O)c2ccc(C#Cc3ccccc3)cc2)C1 [Compound 9b, (3-hydroxy-3-methylazetidin-1-yl)(4-(phenylethynyl)phenyl)methanone]	119
CCCC1(O)CN(C(=O)c2ccc(C#Cc3ccccc3)cc2)C1 [Compound 9c, (3-hydroxy-3-propylazetidin-1-yl)(4-(phenylethynyl)phenyl)methanone]	500
O=C(c1ccc(C#Cc2ccccc2)cc1)N1CC(O)(c2cccs2)C1 [Compound 9d, (3-hydroxy-3-(thiophen-2-yl)azetidin-1-yl)(4-(phenylethynyl)phenyl)methanone]	1710
O=C(c1ccc(C#Cc2ccccc2F)cc1)N1CCC(O)CC1 [Compound 19a, (4-((2-fluorophenyl)ethynyl)phenyl)(4-hydroxypiperidin-1-yl)methanone]	28.1
O=C(c1ccc(C#Cc2cccc(F)c2)cc1)N1CCC(O)CC1 [Compound 19b, (4-((3-fluorophenyl)ethynyl)phenyl)(4-hydroxypiperidin-1-yl)methanone]	3.25
O=C(c1ccc(C#Cc2ccc(F)cc2)cc1)N1CCC(O)CC1 [Compound 19c, (4-((4-fluorophenyl)ethynyl)phenyl)(4-hydroxypiperidin-1-yl)methanone]	15.2
O=C(c1ccc(C#Cc2ccc(F)c(F)c2)cc1)N1CCC(O)CC1 [Compound 19d, (4-((3,4-difluorophenyl)ethynyl)phenyl)(4-hydroxypiperidin-1-yl)methanone]	73.9
O=C(c1ccc(C#Cc2cc(F)cc(F)c2)cc1)N1CCC(O)CC1 [Compound 19e, (4-((3,5-difluorophenyl)ethynyl)phenyl)(4-hydroxypiperidin-1-yl)methanone]	1000
Cc1cc(C#Cc2ccc(C(=O)N3CCC(O)CC3)cc2)ccc1F [Compound 19f, (4-((4-fluoro-3-methylphenyl)ethynyl)phenyl)(4-hydroxypiperidin-1-yl)methanone]	832

same assay, conditions: potentiation of glutamate response, HEK cells transfected with rat mGluR5; SAR tables; read-out: EC50

Compound	EC50 [nM]
CC1(O)CCN(C(=O)c2ccc(C#Cc3ccccc3)cc2)CC1 [Compound 7a, (4-hydroxy-4-methylpiperidin-1-yl)(4-(phenylethynyl)phenyl)methanone]	3.5
CC(C)C1(O)CCN(C(=O)c2ccc(C#Cc3ccccc3)cc2)CC1 [Compound 7c, (4-hydroxy-4-isopropylpiperidin-1-yl)(4-(phenylethynyl)phenyl)methanone]	1770
O=C(c1ccc(C#Cc2ccccc2)cc1)N1CCC(O)(c2cccs2)CC1 [Compound 7d, (4-hydroxy-4-(thiophen-2-yl)piperidin-1-yl)(4-(phenylethynyl)phenyl)methanone]	1000
O=C(c1ccc(C#Cc2ccccc2)cc1)N1CCC(O)(c2ccc(F)cc2)CC1 [Compound 7e]	1190
O=C(c1ccc(C#Cc2ccccc2)cc1)N1CCC(O)(c2cccc(F)c2)CC1 [Compound 7f]	1600
COc1ccc(C2(O)CCN(C(=O)c3ccc(C#Cc4ccccc4)cc3)CC2)cc1 [Compound 7g]	2450
O=C(c1ccc(C#Cc2ccccc2)cc1)N1CC(O)C1 [Compound 9a, (3-hydroxyazetidin-1-yl)(4-(phenylethynyl)phenyl)methanone]	212
CC1(O)CN(C(=O)c2ccc(C#Cc3ccccc3)cc2)C1 [Compound 9b, (3-hydroxy-3-methylazetidin-1-yl)(4-(phenylethynyl)phenyl)methanone]	89
CCCC1(O)CN(C(=O)c2ccc(C#Cc3ccccc3)cc2)C1 [Compound 9c, (3-hydroxy-3-propylazetidin-1-yl)(4-(phenylethynyl)phenyl)methanone]	423
O=C(c1ccc(C#Cc2ccccc2)cc1)N1CC(O)(c2cccs2)C1 [Compound 9d, (3-hydroxy-3-(thiophen-2-yl)azetidin-1-yl)(4-(phenylethynyl)phenyl)methanone]	1470
O=C(c1ccc(C#Cc2ccccc2F)cc1)N1CCC(O)CC1 [Compound 19a, (4-((2-fluorophenyl)ethynyl)phenyl)(4-hydroxypiperidin-1-yl)methanone]	27.3
O=C(c1ccc(C#Cc2cccc(F)c2)cc1)N1CCC(O)CC1 [Compound 19b, (4-((3-fluorophenyl)ethynyl)phenyl)(4-hydroxypiperidin-1-yl)methanone]	3.25
O=C(c1ccc(C#Cc2ccc(F)cc2)cc1)N1CCC(O)CC1 [Compound 19c, (4-((4-fluorophenyl)ethynyl)phenyl)(4-hydroxypiperidin-1-yl)methanone]	14.7
O=C(c1ccc(C#Cc2ccc(F)c(F)c2)cc1)N1CCC(O)CC1 [Compound 19d, (4-((3,4-difluorophenyl)ethynyl)phenyl)(4-hydroxypiperidin-1-yl)methanone]	68.7
O=C(c1ccc(C#Cc2cc(F)cc(F)c2)cc1)N1CCC(O)CC1 [Compound 19e, (4-((3,5-difluorophenyl)ethynyl)phenyl)(4-hydroxypiperidin-1-yl)methanone]	593
Cc1cc(C#Cc2ccc(C(=O)N3CCC(O)CC3)cc2)ccc1F [Compound 19f, (4-((4-fluoro-3-methylphenyl)ethynyl)phenyl)(4-hydroxypiperidin-1-yl)methanone]	500
